{
  "source": "patent US11000033B2",
  "about": "“Ketone or oxime compound, and herbicide” (NISSAN CHEMICAL CORPORATION, priority 2014, dated 2021)",
  "format_in_all_cases": "in vivo",
  "key": {"soybean": {"system": "soybean", "assay": "Test Example 4: effect on crop by soil treatment (symbol d)", "details": "application herbicide amount 320 g/ha", "in_short": "(§1)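 Plants are raised in a greenhouse (25° C. to 30° C.) from spot-sown seed, which sits under about 1.5 cm of sterilized diluvial soil in a box shared with weed species.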"}, "Apera spica-venti": {"system": "Apera spica-venti", "assay": "Test Example 4: herbicidal effect by soil treatment (symbol L)", "details": "application herbicide amount 320 g/ha", "in_short": "(§2)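 Seeds were sown in sterilized diluvial soil, covered with about 1.5 cm of soil, and the soil surface was sprayed with a water-diluted emulsion of the compound at a predetermined rate. Plants grew in a greenhouse at 25° C. to 30° C.; effects were scored visually 3 weeks after application.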"}, "Amaranthus retroflexus": {"system": "Amaranthus retroflexus", "assay": "Test Example 4: herbicidal effect by soil treatment (symbol N)", "details": "application herbicide amount 320 g/ha", "in_short": "as §2"}, "wheat [1]": {"system": "wheat", "assay": "Test Example 5: effect on crop by foliage application, plastic box (symbol e)", "details": "320 g/ha, 3 weeks after application", "in_short": "(§3)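 Foliage-application test plants come from spot sowing in sterilized diluvial soil under a soil layer of about 1.5 cm, grown at 25° C. to 30° C. in a greenhouse.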"}, "rice": {"system": "rice", "assay": "Test Example 4: effect on crop by soil treatment (symbol b)", "details": "application herbicide amount 320 g/ha", "in_short": "as §1"}, "rapeseed [2]": {"system": "rapeseed", "assay": "Test Example 5: effect on crop by foliage application, plastic box (symbol g)", "details": "320 g/ha, 3 weeks after application", "in_short": "as §3"}, "beet": {"system": "beet", "assay": "Test Example 5: effect on crop by foliage application, plastic box (symbol f)", "details": "320 g/ha, 3 weeks after application", "in_short": "as §3"}, "Scirpus juncoides": {"system": "Scirpus juncoides", "assay": "Test Example 2: herbicidal activity, application during weed generation in submerged conditions (symbol B)", "details": "Table 23; application herbicide amount 320 g/ha; grade 0-5 by criteria of Test Example 1", "in_short": "(§4)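 Compound was applied as a water-diluted emulsion into the standing water of flooded pots (4 cm) once co-sown weeds reached one to two leaves. Greenhouse temperature was 25° C. to 30° C., soil was alluvial, and each species was rated visually after 3 weeks.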"}, "rice plant": {"system": "rice plant", "assay": "Test Example 5: effect on crop by foliage application, plastic box (symbol b)", "details": "320 g/ha, 3 weeks after application", "in_short": "as §3"}, "Avena fatua": {"system": "Avena fatua", "assay": "Test Example 4: herbicidal effect by soil treatment (symbol I)", "details": "application herbicide amount 320 g/ha", "in_short": "as §2"}, "[3]": {"system": "directly sowed rice plant", "assay": "Test Example 3: effect on crop by foliage application, Wagner pot (symbol b)", "details": "application herbicide amount 320 g/ha", "in_short": "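Wagner pot (1/10000 are), alluvial soil, submerged 0.1–0.5 cm; sown E. crus-galli var. crus-galli, L. chinensis, C. difformis, rice; greenhouse 25–30 °C.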"}, "[4]": {"system": "Echinochloa oryzacola Vasing.", "assay": "Test Example 2: herbicidal activity, application during weed generation in submerged conditions (symbol A)", "details": "Table 23; application herbicide amount 320 g/ha; grade 0-5 by criteria of Test Example 1", "in_short": "as §4"}, "Abutilon theophrasti": {"system": "Abutilon theophrasti", "assay": "Test Example 5: herbicidal effect by foliage application, plastic box (symbol M)", "details": "320 g/ha, 3 weeks after application", "in_short": "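Post-emergence spray; diluvial soil (sterilized), ~1.5 cm seed cover; greenhouse 25–30° C; 14-day-old plants; water-diluted emulsion at predetermined dose; visual score at 3 wk post-treatment.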"}, "Lolium multiflorum Lam.": {"system": "Lolium multiflorum Lam.", "assay": "Test Example 4: herbicidal effect by soil treatment (symbol K)", "details": "application herbicide amount 320 g/ha", "in_short": "as §2"}, "wheat [5]": {"system": "wheat", "assay": "Test Example 4: effect on crop by soil treatment (symbol e)", "details": "application herbicide amount 320 g/ha", "in_short": "as §1"}, "rapeseed [6]": {"system": "rapeseed", "assay": "Test Example 4: effect on crop by soil treatment (symbol g)", "details": "application herbicide amount 320 g/ha", "in_short": "as §1"}},
  "data": [
    {"smiles": "CC(CC1CC(O)=C(c2c(C)cc(C)cc2C)C1=O)=NOCc1ccccn1", "note": "(stereo not drawn) [1-022]", "values": [
      {"measurement": "d (soybean) effect on crop grade", "setting": "soybean", "result": "0 (Herbicidal ratio of 5% or lower (almost no effect))"},
      {"measurement": "L (Apera spica-venti) herbicidal effect grade", "setting": "Apera spica-venti", "result": "5 (Herbicidal ratio of 90% or more (almost completely withered))"},
      {"measurement": "N (Amaranthus retroflexus) herbicidal effect grade", "setting": "Amaranthus retroflexus", "result": "0 (Herbicidal ratio of 5% or lower (almost no effect))"},
      {"measurement": "e: wheat, effect on crop grade", "setting": "wheat [1]", "result": "5 (Herbicidal ratio of 90% or more (almost completely withered))"},
      {"measurement": "b (directly sowed rice plant) effect on crop grade", "setting": "rice", "result": "5 (Herbicidal ratio of 90% or more (almost completely withered))"},
      {"measurement": "g: rapeseed, effect on crop grade", "setting": "rapeseed [2]", "result": "4 (Herbicidal ratio of 70% or higher and lower than 90%)"},
      {"measurement": "f: beet, effect on crop grade", "setting": "beet", "result": "0 (Herbicidal ratio of 5% or lower (almost no effect))"},
      {"measurement": "Herbicidal effect grade, B: Scirpus juncoides", "setting": "Scirpus juncoides", "result": "5 (Herbicidal ratio of 90% or more (almost completely withered))"},
      {"measurement": "b: directly sowed rice plant, effect on crop grade", "setting": "rice plant", "result": "5 (Herbicidal ratio of 90% or more (almost completely withered))"},
      {"measurement": "I (Avena fatua) herbicidal effect grade", "setting": "Avena fatua", "result": "4 (Herbicidal ratio of 70% or higher and lower than 90%)"},
      {"measurement": "effect on crop b (directly sowed rice plant), grade 0-5", "setting": "[3]", "result": "5 (Herbicidal ratio of 90% or more (almost completely withered))"},
      {"measurement": "Herbicidal effect grade, A: Echinochloa oryzacola Vasing.", "setting": "[4]", "result": "4 (Herbicidal ratio of 70% or higher and lower than 90%)"},
      {"measurement": "M: Abutilon theophrasti, herbicidal effect grade", "setting": "Abutilon theophrasti", "result": "1 (Herbicidal ratio of 5% or higher and lower than 20%)"},
      {"measurement": "K (Lolium multiflorum Lam.) herbicidal effect grade", "setting": "Lolium multiflorum Lam.", "result": "5 (Herbicidal ratio of 90% or more (almost completely withered))"},
      {"measurement": "e (wheat) effect on crop grade", "setting": "wheat [5]", "result": "4 (Herbicidal ratio of 70% or higher and lower than 90%)"}
    ]},
    {"smiles": "CON=C(C)C(C)C1CC(O)=C(c2c(C)cc(Br)cc2OC)C1=O", "note": "(stereo not drawn) [6-113]", "values": [
      {"measurement": "Effect on crop grade, d: soybean", "setting": "soybean", "result": "0 (Herbicidal ratio of 5% or lower (almost no effect))"},
      {"measurement": "Effect on crop grade, g: rapeseed", "setting": "rapeseed [6]", "result": "1 (Herbicidal ratio of 5% or higher and lower than 20%)"},
      {"measurement": "Herbicidal effect grade, N: Amaranthus retroflexus", "setting": "Amaranthus retroflexus", "result": "0 (Herbicidal ratio of 5% or lower (almost no effect))"},
      {"measurement": "e: wheat, effect on crop (criteria of Test Example 1)", "setting": "wheat [1]", "result": "5 (Herbicidal ratio of 90% or more (almost completely withered))"},
      {"measurement": "Effect on crop grade, b: directly sowed rice plant", "setting": "rice", "result": "5 (Herbicidal ratio of 90% or more (almost completely withered))"},
      {"measurement": "g: rapeseed, effect on crop (criteria of Test Example 1)", "setting": "rapeseed [2]", "result": "4 (Herbicidal ratio of 70% or higher and lower than 90%)"},
      {"measurement": "f: beet, effect on crop (criteria of Test Example 1)", "setting": "beet", "result": "0 (Herbicidal ratio of 5% or lower (almost no effect))"},
      {"measurement": "Herbicidal effect grade, B: Scirpus juncoides", "setting": "Scirpus juncoides", "result": "0 (Herbicidal ratio of 5% or lower (almost no effect))"},
      {"measurement": "b: directly sowed rice plant, effect on crop (criteria of Test Example 1)", "setting": "rice plant", "result": "5 (Herbicidal ratio of 90% or more (almost completely withered))"},
      {"measurement": "Herbicidal effect grade, I: Avena fatua", "setting": "Avena fatua", "result": "0 (Herbicidal ratio of 5% or lower (almost no effect))"},
      {"measurement": "effect on crop b (directly sowed rice plant), grade 0-5", "setting": "[3]", "result": "5 (Herbicidal ratio of 90% or more (almost completely withered))"},
      {"measurement": "Herbicidal effect grade, A: Echinochloa oryzacola Vasing.", "setting": "[4]", "result": "5 (Herbicidal ratio of 90% or more (almost completely withered))"},
      {"measurement": "M: Abutilon theophrasti, herbicidal effect (criteria of Test Example 1)", "setting": "Abutilon theophrasti", "result": "0 (Herbicidal ratio of 5% or lower (almost no effect))"},
      {"measurement": "Herbicidal effect grade, K: Lolium multiflorum Lam.", "setting": "Lolium multiflorum Lam.", "result": "5 (Herbicidal ratio of 90% or more (almost completely withered))"},
      {"measurement": "Effect on crop grade, e: wheat", "setting": "wheat [5]", "result": "0 (Herbicidal ratio of 5% or lower (almost no effect))"}
    ]}
  ]
}
